In patent US20070203066A1, “Compositions and methods for inhibiting cellular proliferation” (priority 2005, published 2007):
No end group written: not given here.

Tested on: HUVECs
Assay type: cell-based
Conditions: HUVEC proliferation, bFGF at 10 ng/ml or VEGF at 5 ng/ml, 48 hours, BrdU incorporation; read-out: IC50 on HUVECs
Protocol: HUVECs were routinely cultured to near confluency in EGM media (Clontech, Mountain View, California). The cells were trypsinized and plated in a 96-well plate at 5,000 cells per well per 100 μl EBM supplemented with 2% FCS and antibiotics. The cells were allowed to adhere to the plate for at least 12 hours. Then, bFGF at 10 ng/ml or VEGF at 5 ng/ml, and various concentrations of peptide, were added to the wells. The cells were cultured for 48 hours at 37 ° C. in a 5% CO2 atmosphere. Cell proliferation was determined using a bromo-deoxyuridine (BrdU) incorporation method as described by the manufacturer. Inhibition of cell proliferation was assessed by BrdU incorporation.

| Substance | IC50 |
| --- | --- |
| 222 (XHHHHQAVAIIF; Xaa = Acylated Histidine; Dimeric peptide wherein the C terminus of Phe in position 12 of one peptide chain is covalently bound to one of the amino groups of a Lysine linker and Phe of the remaining peptide chain is covalently bound to the other amino group of the Lysine linker.) [compound 222] | > 30 µM |
| 223 (Ac-ARRRRQRVAIGFK; also: homodimer via Ida linker on side chain of Lys13) [compound 223] | > 30 µM |
| 224 (Ac-ARRRRQRVAIHFK; also: homodimer via Ida linker on side chain of Lys13) [compound 224] | < 10 µM |
| 225 (Ac-ARRRRQRVAINFK; also: homodimer via Ida linker on side chain of Lys13) [compound 225] | < 10 µM |
| 226 (Ac-ARRRRQRVAITFK; also: homodimer via Ida linker on side chain of Lys13) [compound 226] | < 10 µM |
| 227 (Ac-ARRRRQRVAIWFK; also: homodimer via Ida linker on side chain of Lys13) [compound 227] | < 10 µM |
| 229 (XHRRRQRVRIIF; Xaa = Acylated Histidine; Dimeric peptide wherein the C terminus of Phe in position 12 of one peptide chain is covalently bound to one of the amino groups of a Lysine linker and Phe of the remaining peptide chain is covalently bound to the other amino group of the Lysine linker.) [compound 229] | < 10 µM |
| 230 (XRHRRQRVRIIF; Xaa = Acylated Histidine; Dimeric peptide wherein the C terminus of Phe in position 12 of one peptide chain is covalently bound to one of the amino groups of a Lysine linker and Phe of the remaining peptide chain is covalently bound to the other amino group of the Lysine linker.) [compound 230] | < 10 µM |
| 231 (XRRHRQRVRIIF; Xaa = Acylated Histidine; Dimeric peptide wherein the C terminus of Phe in position 12 of one peptide chain is covalently bound to one of the amino groups of a Lysine linker and Phe of the remaining peptide chain is covalently bound to the other amino group of the Lysine linker.) [compound 231] | < 10 µM |
| 232 (XRRRHQRVRIIF; Xaa = Acylated Histidine; Dimeric peptide wherein the C terminus of Phe in position 12 of one peptide chain is covalently bound to one of the amino groups of a Lysine linker and Phe of the remaining peptide chain is covalently bound to the other amino group of the Lysine linker.) [compound 232] | < 10 µM |
| 233 (XRRRRQHVRIIF; Xaa = Acylated Histidine; Dimeric peptide wherein the C terminus of Phe in position 12 of one peptide chain is covalently bound to one of the amino groups of a Lysine linker and Phe of the remaining peptide chain is covalently bound to the other amino group of the Lysine linker.) [compound 233] | < 10 µM |
| 234 (XRRRRQRVHIIF; Xaa = Acylated Histidine; Dimeric peptide wherein the C terminus of Phe in position 12 of one peptide chain is covalently bound to one of the amino groups of a Lysine linker and Phe of the remaining peptide chain is covalently bound to the other amino group of the Lysine linker.) [compound 234] | < 10 µM |
| 235 (Ac-RHHRRQRVRIIF; also: dimer via C-terminal Phe to Lys linker) [compound 235] | < 10 µM |
| 236 (Ac-RHRHRQRVRIIF; also: dimer via C-terminal Phe to Lys linker) [compound 236] | < 10 µM |
| 237 (Ac-RHRRHQRVRIIF; also: dimer via C-terminal Phe to Lys linker) [compound 237] | < 10 µM |
| 238 (Ac-RHRRRQHVRIIF; also: dimer via C-terminal Phe to Lys linker) [compound 238] | < 10 µM |
| 239 (Ac-RHRRRQRVHIIF; also: dimer via C-terminal Phe to Lys linker) [compound 239] | < 10 µM |
| 240 (Ac-RRHHRQRVRIIF; also: dimer via C-terminal Phe to Lys linker) [compound 240] | < 10 µM |
| 241 (Ac-RRHRHQRVRIIF; also: dimer via C-terminal Phe to Lys linker) [compound 241] | < 10 µM |
| 242 (Ac-RRHRRQHVRIIF; also: dimer via C-terminal Phe to Lys linker) [compound 242] | < 10 µM |
| 243 (Ac-RRHRRQRVHIIF; also: dimer via C-terminal Phe to Lys linker) [compound 243] | < 10 µM |
| 244 (Ac-RRRHRQHVRIIF; also: homodimer: C-termini of two chains bound to the two amines of a Lys linker) [compound 244] | < 10 µM |
| 245 (Ac-RRRHRQRVHIIF; also: homodimer: C-termini of two chains bound to the two amines of a Lys linker) [compound 245] | 10 to 30 µM |
| 246 (Ac-RRRRHQHVRIIF; also: homodimer: C-termini of two chains bound to the two amines of a Lys linker) [compound 246] | < 10 µM |
| 247 (Ac-RRRRHQRVHIIF; also: homodimer: C-termini of two chains bound to the two amines of a Lys linker) [compound 247] | < 10 µM |
| 248 (Ac-RRRRRQHVHIIF; also: homodimer: C-termini of two chains bound to the two amines of a Lys linker) [compound 248] | < 10 µM |
| 249 (Ac-RRRRRQAVAIEFK; not fully specified (C-terminus); also: homodimer: side chain of Lys13 bound to an Ida linker) [compound 249] | 10 to 30 µM |
| 250 (Ac-RRRRRQAVAIHFK; not fully specified (C-terminus); also: homodimer: side chain of Lys13 bound to an Ida linker) [compound 250] | < 10 µM |
| 251 (Ac-RRRRRQAVAIPFK; not fully specified (C-terminus); also: homodimer: side chain of Lys13 bound to an Ida linker) [compound 251] | > 30 µM |
